Data reported in patent US8597920B2, “Class of Chloroflexi-like thermophilic cellulose degrading bacteria” (priority 2008, dated 2013).

Experiments:
Chloroflexus isolate T81 [1] = assay: Growth on sole energy sources (metabolism experiments); type: cell-based, thermophilic Chloroflexi-like bacteria; settings: AOM1 (pH 6.5) and FS3V (pH 4.5)
Experimental: (§1) Mineral salts medium FS3V, FeEDTA, Trace elements solution and AOM1 medium were prepared as for Example 1. Energy sources were added to both media prior to autoclaving (0.5 g/L), except where noted, via syringe filter.
(§2) Unless otherwise stated, the following growth conditions were used for all experiments; Chloroflexus strains were grown aerobically at 60° C. in capped 100 mL serum bottles containing 50 mL of medium and 50 mL air headspace. No CO2 was amended to the headspace. Medium was sterilised via autoclaving (121° C., 20 min). Fifty μL of culture was inoculated into 50 mL of sterile medium. Stock Chloroflexus strains were maintained in liquid culture on mannose and on carboxymethylcellulose (CMC), and on phytagel-based solid medium.
(§3) Growth experiments to determine growth using different energy sources were conducted using the basal media, AOM1 or FS3V. No yeast extract (YE) or vitamins were added as growth supplements to either medium in these series of experiments. […] Both the YE and vitamin mix were also tested as sole energy sources.
(§4) Sole energy sources were added at a concentration of (0.5 g/L). […] Yeast extract (Becton Dickinson, 211929), sodium pyruvate (Sigma, P2256), sodium citrate (Ajax Finechem, A467,) and sodium acetate (Sigma, S2881), were also tested as sole energy sources, along with the alcohols methanol (Merck, 1.06018), ethanol (Merck, 1.00983), 1-propanol (Merck, 1.01024), 2-propanol (Merck, 1.01040), pentanol (Sigma, 138975) and butanol (Sigma, 1.01988). A vitamin mix was tested as a sole energy source. The vitamin mixture contained (in 100 mg): 0.8 mg folic acid; 8 mg vitamin B1; 4 mg vitamin B2; 1 mg niacin; 10 mg niacinamide; 15 mg pantothenate; 15 mg pyridoxine; 5 mg cobalamin; 5 mg biotin; 15 mg choline; 15 mg inositol; 7 mg para-amino benzoic acid and was tested at 10 and 100 mg/L.
(§5) Experiments were inoculated using stock cultures of T81, T12 and T26 grown in a corresponding medium with a corresponding energy source type. For example, inoculum for testing growth on a cellulose-based compound was grown in the corresponding medium with a cellulose-based compound as an energy source. All energy sources were added at a concentration of 0.5 g/L prior to autoclave sterilisation, except for D-N-acetylglucosamine, D-(−)-fructose, sodium acetate, sodium citrate, sodium pyruvate, methanol, ethanol, 1-propanol, 2-propanol, pentanol and butanol which were added via filter sterilisation (0.22 μm pore size membrane syringe filter). Tests were conducted in triplicate with a sterile control.

Strain T81 = assay: Preference for alcohols over saccharides (fructose with ethanol, HPLC); type: cell-based, thermophilic Chloroflexi-like bacteria; settings: FS3V, 60° C.
Experimental: Unless otherwise stated, sugars and/or alcohols were measured on a Dionex Ultimate 3000® High Performance Liquid Chromatography (HPLC) unit via refractive index (RI) on a Shodex RI-101 unit (Dionex, Utah, USA). The RI unit was run at 35° C. Samples (10 μL) were injected into a degassed water carrier solution running at 0.6 mL/min. Samples were separated on a Varian PL Hi-Plex H (8 μm, 300×7.7 mm) at 60° C. (Varian, Massachusetts, USA). Chromatographs were interpreted using Chromeleon® software (Dionex, Utah, USA). Strain […] was also tested for it's preference for alcohols over saccharides. […] Strain […] was inoculated and incubated statically at 60° C. One milliliter samples were taken daily and frozen for analysis using HPLC.

Chloroflexus isolate T12 [2] = settings: FS3V, pH 4.5; ethanol as sole energy source
Experimental: All three Chloroflexus strains were tested for their ability to grow on elevated levels of ethanol. Ethanol at concentrations of 0.1%, 1.0%, 2.0%, 5.0%, 7.5%, and 10.0% (v/v) were asceptically added into FS3V medium following sterilisation as the sole energy source. Strains were then inoculated and incubated statically.

[3] = tested on: Chloroflexus strains T81, T26 and T12; assay: Growth on energy sources, statements for all three strains together; type: cell-based, thermophilic Chloroflexi-like bacteria
Experimental: Growth experiments to determine growth using different energy sources were conducted using the basal media, AOM1 or FS3V. No yeast extract (YE) or vitamins were added as growth supplements to either medium in these series of experiments. Preliminary experiments have shown that they are not requited. Both the YE and vitamin mix were also tested as sole energy sources. Sole energy sources were added at a concentration of (0.5 g/L). […] A vitamin mix was tested as a sole energy source. The vitamin mixture contained (in 100 mg): 0.8 mg folic acid; 8 mg vitamin B1; 4 mg vitamin B2; 1 mg niacin; 10 mg niacinamide; 15 mg pantothenate; 15 mg pyridoxine; 5 mg cobalamin; 5 mg biotin; 15 mg choline; 15 mg inositol; 7 mg para-amino benzoic acid and was tested at 10 and 100 mg/L. Experiments were inoculated using stock cultures of […], T12 and […] grown in a corresponding medium with a corresponding energy source type. For example, inoculum for testing growth on a cellulose-based compound was grown in the corresponding medium with a cellulose-based compound as an energy source. […] Bacterial growth was determined visually as optical density (OD) measurements are not possible due to growth characteristics of the Chloroflexi isolates. […] Cellulose pulp degradation and sugar generation by Chloroflexus strain […] was assessed. […] Growth on the various pulp tablets was assessed visually.

Chloroflexus isolate T12 [4] = assay: Growth on sole energy sources (metabolism experiments); type: cell-based, thermophilic Chloroflexi-like bacteria; settings: for Growth of T12 on alcohol as sole energy source, FS3V: alcohol 0.05% v/v, aerobic, 60° C.
Experimental: as §1, §2, §3, §4, §5

Chloroflexus isolate T26 = assay: as above; type: cell-based, thermophilic Chloroflexi-like bacteria; settings: aerobic, 60° C.; for Growth of T26 on sole energy source, AOM1: AOM1 medium (pH 6.5), energy source 0.5 g/L
Experimental: as §1, §2, §3, §4, §5

Chloroflexus isolate T81 [5] = assay: as above; type: cell-based, thermophilic Chloroflexi-like bacteria; settings: aerobic, 60° C.; for Growth of T81 on sole energy source, FS3V: FS3V medium (pH 4.5), energy source 0.5 g/L; for Growth of T81 on alcohol as sole energy source, FS3V: alcohol 0.05% v/v

For O=C[C@H](O)[C@@H](O)[C@@H](O)[C@H](O)CO [D-(+)-galactose], which “Growth of T81 on both media” value (Chloroflexus isolate T81 [1]) is on record?
The value was “grew”.

Which “Effect of ethanol on growth of strain T81” value (Strain T81; 5% (w/v) ethanol and 0.05% (w/v) fructose) does the source give for CCO [ethanol] here?
Its value is “inhibited the growth”.

What about the “Ethanol concentrations Strain T12 was able to grow on, up to (and including)” value (Chloroflexus isolate T12 [2]) of the same molecule?
Its value is ≤ 5.0 % (v/v).

And the “Ethanol concentrations all strains were able to grow on, up to (and including)” value ([3]; FS3V, ethanol as sole energy source)?
The value was ≤ 2.0 % (v/v).

With O=C[C@@H](O)[C@@H](O)[C@H](O)[C@H](O)CO [D-(+)-mannose] as the molecule, how does the “Growth of T81 on both media” value (Chloroflexus isolate T81 [1]) read?
The value was “grew”.

And the “Growth of Strain T12 in AOM1 medium adjusted to pH 4.5” value (Chloroflexus isolate T12 [4]; AOM1 medium adjusted to pH 4.5)?
Its value is “able to grow”.

With butanol as the molecule, how does the “Growth of T12 on alcohol as sole energy source, FS3V” value (Chloroflexus isolate T12 [4]) read?
The value was “exception”.

For OC[C@H]1O[C@H](O[C@H]2O[C@H](CO)[C@@H](O)[C@H](O)[C@H]2O)[C@H](O)[C@@H](O)[C@@H]1O [D-(+)-trehalose], which “Growth of T81 on both media” value (Chloroflexus isolate T81 [1]) is on record?
The value was “grew”.

What does the source list for C[C@@H]1O[C@@H](O)[C@H](O)[C@H](O)[C@H]1O.O [L-rhammnose monohydrate]?
Growth of T81 on both media (Chloroflexus isolate T81 [1]): grew; Growth of T26 on sole energy source, AOM1 (Chloroflexus isolate T26; listed as L-rhamnose monohydrate, monohydrate): could grow

How did the “Growth of T81 on sole energy source, FS3V” value (Chloroflexus isolate T81 [5]) turn out when O=C[C@@H](O)[C@H](O)[C@H](O)CO [D-(+)-arabinose] was run?
The value was “grew”.

CCCO [propanol] was tested. Which “Growth of T81 on alcohol as sole energy source, FS3V” value (Chloroflexus isolate T81 [5]) did it give?
Its value is “best growth”.

And the “Growth of T26 on alcohol as sole energy source, FS3V” value (Chloroflexus isolate T26; FS3V, alcohol 0.05% v/v)?
Its value is “best growth”.

OC[C@H]1O[C@@](CO)(O[C@H]2O[C@H](CO)[C@@H](O)[C@H](O)[C@H]2O)[C@@H](O)[C@@H]1O [sucrose] was tested. Which “Growth of T81 on both media” value (Chloroflexus isolate T81 [1]) did it give?
The value was “grew”.

Which “Support of growth / energy for the isolates T81, T26 and T12” value ([3]; sole energy sources, AOM1 or FS3V) does the source give for O=C[C@H](O)[C@@H](O)[C@@H](O)[C@H](O)C(=O)O [galacturonic acid] here?
The value was “did not support growth”.

Which results are given for O=C(CO)[C@@H](O)[C@H](O)[C@H](O)CO [D-(−)-fructose]?
Consumption by T81 in presence of ethanol and fructose (Strain T81; ethanol (0.05% w/v) and fructose (0.05% w/v)): consumed fructose in preference to ethanol; Growth of T81 on both media (Chloroflexus isolate T81 [1]): grew

CCCCCO [1-pentanol] was tested. Which “Growth of T81 on alcohol as sole energy source, FS3V” value (Chloroflexus isolate T81 [5]) did it give?
Its value is “exception”.

And the “Growth of T12 on alcohol as sole energy source, FS3V” value (Chloroflexus isolate T12 [4])?
Its value is “exception”.

Which “Growth of T81 on both media” value (Chloroflexus isolate T81 [1]) does the source give for OC[C@H]1O[C@H](OC[C@H]2O[C@H](O[C@]3(CO)O[C@H](CO)[C@@H](O)[C@@H]3O)[C@H](O)[C@@H](O)[C@@H]2O)[C@H](O)[C@@H](O)[C@H]1O [raffinose] here?
Its value is “grew”.

Which “Growth of T81 on sole energy source, FS3V” value (Chloroflexus isolate T81 [5]) does the source give for O=C[C@H](O)[C@H](O)[C@H](O)CO [D-(−)-ribose] here?
The value was “grew”.

Which “Growth of T26 on sole energy source, AOM1” value (Chloroflexus isolate T26; listed as D-N-actylglucosamine) does the source give for CC(=O)N[C@H]1C(O)O[C@H](CO)[C@@H](O)[C@@H]1O (stereo partly drawn) [D-N-acetylglucosamine] here?
The value was “could grow”.

How did the “Growth of T81 on both media” value (Chloroflexus isolate T81 [1]) turn out when O=C[C@H](O)[C@@H](O)[C@H](O)[C@H](O)CO [D-glucose] was run?
Its value is “grew”.

For OC[C@H]1O[C@H](O[C@H]2[C@H](O)[C@@H](O)[C@H](O)O[C@@H]2CO)[C@H](O)[C@@H](O)[C@@H]1O [D-(+)-maltose], which “Growth of T81 on both media” value (Chloroflexus isolate T81 [1]) is on record?
Its value is “grew”.

What does the source list for OC[C@H]1O[C@@H](O[C@H]2[C@H](O)[C@@H](O)[C@H](O)O[C@@H]2CO)[C@H](O)[C@@H](O)[C@@H]1O [D-(+)-cellobiose]?
Growth of T81 on both media (Chloroflexus isolate T81 [1]): grew; Growth of T26 on sole energy source, AOM1 (Chloroflexus isolate T26): could grow

With O=C[C@H](O)[C@@H](O)[C@H](O)CO [D-(+)-xylose] as the molecule, how does the “Growth of T81 on both media” value (Chloroflexus isolate T81 [1]) read?
The value was “grew”.
